Reference: PubChem BioAssay (NCI)
“And” between values parts separate entries of the source, which are not always exact repeats. Identical values can stand only once.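 Protocol summary: plate cells (96-well), add compound at 5 concentrations, incubate 48 h, interpolate endpoints linearly. Here, GI50 denotes the concentration required for 50% inhibition of growth. TGI marks complete inhibition of growth.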

Legend:
Test in all cases: growth of human tumour cells (NCI), 48 h
[1] = system: HOP-62 NSCLC
[2] = system: 786-0 renal
[3] = system: CCRF-CEM leukemia
[4] = system: SF-295 CNS
[5] = system: ACHN renal
[6] = system: UACC-62 melanoma
[7] = system: TK-10 renal
[8] = system: HCT-15 colon
[9] = system: OVCAR-5 ovarian
[10] = system: SN12C renal

| Compound | TGI [1] | TGI [2] | TGI [3] [µM] | TGI [4] | TGI [5] [µM] | TGI [6] | TGI [7] [µM] | TGI [8] | TGI [9] [µM] | TGI [10] | GI50 [1] | GI50 [2] | GI50 [3] | GI50 [4] | GI50 [5] | GI50 [6] | GI50 [7] | GI50 [8] | GI50 [9] | GI50 [10] |
| --- | --- | --- | --- | --- | --- | --- | --- | --- | --- | --- | --- | --- | --- | --- | --- | --- | --- | --- | --- | --- |
| CC[P+](C)(C)CC | > 100 µM | > 100 µM | > 100 | > 100 µM | > 100 | > 100 µM | > 100 | > 100 µM | > 100 | > 100 µM |  |  |  |  |  |  |  |  |  |  |
| C=CCC(NCc1ccccc1)c1cn(C(=O)OCC)c2ccccc12 (centres undefined) | 64.6 µM | 38.8 µM | 42.1 | 47.4 µM | 36.5 | 50.6 µM | 36.6 | 55 µM | 44.6 | 60.9 µM | 24.6 µM | 18.7 µM | 19.4 µM | 21.7 µM | 18.5 µM | 22.6 µM | 16.5 µM | 20.9 µM | 16 µM | 25.7 µM |
| N/N=C1\C(=O)N(c2ccc(Cl)c(Cl)c2)C(=O)C1C(=O)Nc1ccc(Cl)c(Cl)c1 (centres undefined) | > 100 µM | > 100 µM | > 100 | > 100 µM | > 100 | > 100 µM | > 100 | > 100 µM | > 100 | > 100 µM |  |  |  |  |  |  |  |  |  |  |
| NC(=O)c1c(-c2ccccc2)c(-c2ccccc2)cc2c(=O)c3ccccc3[nH]c12 | 58.5 µM | 21.5 µM | > 100 | > 100 µM | 37.7 | 96.8 µM | 35.6 | > 100 µM | > 100 | > 100 µM |  |  |  |  |  |  |  |  |  |  |
| CCOC(=O)c1nc2sc(Cl)cn2c1/C=N/N=C(N)N | 40.4 µM | 39.8 µM | > 64.2 | > 52.3 µM | 53.4 | 34.5 µM | 47.6 | > 75.2 µM | 49.5 | 57.6 µM | 19.1 µM | 18.6 µM | 25.2 µM | 27.7 µM | 22.3 µM | 17.6 µM | 22.2 µM | 26.8 µM | 20.7 µM | 24 µM |
| O=C1C=CC(=O)N1c1ccc2ccccc2c1 | 31.1 µM | 31.6 µM | 7.94 | > 100 µM | 15.4 | 29.8 µM | 19.1 | 33.1 µM | 34 | 34.1 µM | 16.2 µM | 17.2 µM | 2.09 µM | > 100 µM | 4.66 µM | 16.1 µM | 6.4 µM | 16.5 µM | 17.9 µM | 16.6 µM |
| CC[C@@]1(O)C(=O)OCc2c1cc1n(c2=O)Cc2cc3c(N)c(OC)ccc3nc2-1 | 0.037 µM | 0.0738 µM | 0.0409 | 0.41 µM | 0.0767 | 0.0285 µM | > 50 | 3.52 µM | 0.842 | 0.126 µM | < 0.01 µM | < 0.0157 µM | < 0.01 µM | 0.0267 µM | 0.0255 µM | < 0.01 µM | 2.26 µM | 0.283 µM | 0.0543 µM | 0.0124 µM |
| CC(C)CC1CC2C(=O)N(c3ccccc3)C(=O)C2c2[nH]c3ccccc3c21 (centres undefined) | 47.8 µM | > 100 µM | > 56.6 | > 94.4 µM | > 87.7 | > 31.6 µM | > 40.1 | > 31.6 µM | > 100 | > 43.8 µM |  |  |  |  |  |  |  |  |  |  |
| COc1ccc(C)cc1-c1ccc(-c2cc(C)ccc2OC)o1 | > 100 µM | > 100 µM | > 100 | > 100 µM | > 100 | > 100 µM | > 100 | > 100 µM | > 100 | > 100 µM |  |  |  |  |  |  |  |  |  |  |
| O=C(Nc1ccc(Br)cc1)c1cc(Br)ccc1O | 8.75 µM and 5.31 µM | 2.84 µM and 4.74 µM |  | 2.3 µM and 4.08 µM | > 64 | 1.07 µM and 2.25 µM | > 22.1 | 4.01 µM and 7.35 µM | > 92.4 | 5.14 µM and 8.36 µM | 0.791 µM and 1.73 µM | 0.504 µM and 1.4 µM | 0.862 µM and 0.752 µM | 0.712 µM and 1.39 µM | 0.61 µM and 1.47 µM | 0.235 µM and 0.371 µM | 0.379 µM and 1.56 µM | 0.483 µM and 0.779 µM | 1.75 µM and 4.79 µM | 0.252 µM and 1.42 µM |
| O=C1/C(=C/c2ccc([N+](=O)[O-])s2)Oc2ccc(Br)cc21 | 4.3 µM | 4.84 µM | 0.961 | 3.35 µM | 0.414 | 0.963 µM | 4.66 | 0.583 µM | 2.47 | 2.93 µM | 1 µM | 0.565 µM | 0.31 µM | 1.24 µM | 0.199 µM | 0.297 µM | 0.389 µM | 0.208 µM | 1.07 µM | 0.567 µM |
| COc1cc2c(cc1OCCCN1CCN(CCCOc3cc4c(cc3OC)C(=O)N3C[C@H](F)C[C@H]3C=N4)CC1)N=C[C@@H]1C[C@@H](F)CN1C2=O | 0.0418 µM | 0.763 µM | 1.49 | > 100 µM | 0.945 | 0.145 µM | 3.28 | 12.9 µM | 3.24 | 12.2 µM | 0.013 µM | 0.0263 µM | < 0.01 µM | 0.0457 µM | 0.102 µM | 0.0223 µM | 0.309 µM | 2.15 µM | 0.198 µM | 0.0139 µM |
| COc1cccc(C2=C(c3cn(C)c4c(C)cccc34)C(=O)NC2=O)c1 | > 25 µM | > 25 µM | > 25 | > 25 µM | > 25 | > 25 µM | > 25 | > 25 µM | > 25 | > 25 µM | > 25 µM | 15.8 µM | > 25 µM | 17.4 µM | 16.8 µM | > 22.1 µM | > 25 µM | 14.2 µM | > 25 µM | > 25 µM |
| Cc1nc2ccccc2c(/C=C/c2ccc(C(F)(F)F)cc2)c1C(=O)/C=C/c1ccccc1 | 3.16 µM | 3.07 µM | > 100 | 3.22 µM | 2.87 | 3 µM | 3.63 | 3.16 µM | 3.35 | 3.01 µM | 1.64 µM | 1.58 µM | 0.675 µM | 1.77 µM | 1.54 µM | 1.49 µM | 2.05 µM | 1.1 µM | 1.86 µM | 1.54 µM |
| O=C(O)CC(CC(=O)O)n1cccc1 | > 100 µM | > 100 µM | > 100 | > 100 µM | > 100 | > 100 µM | > 100 | > 100 µM | > 100 | > 100 µM |  |  |  |  |  |  |  |  |  |  |
